Two molecules from publication PMC11662004 (Communications Chemistry, 2024) can be followed below.

Values joined by “and” are separate entries in the source; they are usually repeats but may differ in a detail not shown here. Identical values can stand only once.

The target of data set [1] is T1, NgTet1 (Naegleria gruberi, UniProt D2W6T1).
T1 construct: His6-tagged full-length Naegleria gruberi NgTet1 (321 a. a.) protein with a thrombin cleavage site; made in house; host or cells: E. coli BL21(DE3)
T1 sequence (D2W6T1 1-321): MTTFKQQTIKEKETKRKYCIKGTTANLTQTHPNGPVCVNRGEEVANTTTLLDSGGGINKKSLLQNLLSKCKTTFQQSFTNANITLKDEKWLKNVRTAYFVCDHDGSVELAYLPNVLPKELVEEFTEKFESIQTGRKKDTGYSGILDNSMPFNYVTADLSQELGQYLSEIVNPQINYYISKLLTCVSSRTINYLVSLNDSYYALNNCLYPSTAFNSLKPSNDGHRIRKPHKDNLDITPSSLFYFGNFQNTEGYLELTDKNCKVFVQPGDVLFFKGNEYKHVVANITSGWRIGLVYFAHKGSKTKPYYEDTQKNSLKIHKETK
The data set is described as follows: End-point analysis for tandem activity detection (SPE-MS). The format is biochemical. The note with it: 5 µM NgTet1, 20 µM DNA, SPE-MS (Fig. S4).
Protocol: SPE-MS spectra were recorded on an Agilent RapidFire 365 High-throughput Mass Spectrometry system coupled to an Agilent 6550 iFunnel Q-TOF mass spectrometer following reported procedures[33],[34]. A RapidFire C4 (type A) solid-phase extraction (SPE) cartridge (Agilent, Cat#: G9203A) was used for analyte separation. A binary solvent system was used. Solvent A: 6 mM octylammonium acetate (prepared as described previously)[45] in H2O; solvent B: 80% v/v MeCN in H2O. Samples were aspirated into the sample loop using vacuum (40 μL) from a 96/384-well plate and loaded directly onto the SPE cartridge. The cartridge was washed with solvent A (4,000 ms, 1.5 mL min^−1), and the analyte was eluted with solvent B (4000 ms; 1.25 mL min^−1) onto the Q-TOF MS. Following each sample injection, the SPE cartridge was flushed with 3–6 cycles of H2O and MeCN to remove residual analyte before re-equilibration into solvent A. Q-TOF settings for DNA oligomer analysis were as follows: drying gas temperature: 280 °C; drying gas flow: 13 L min^−1; nebuliser gas pressure: 40 psig; sheath gas temperature: 350 °C; sheath gas flow: 12 L min^−1; capillary voltage (Vcap): 4000 V; nozzle voltage: 0 V; fragmentor voltage: 250 V; spectrum acquisition rate: 5 Hz. Data was processed using Agilent MassHunter Qualitative Analysis™ (B.07.00) and RapidFire Integrator software.
The samples were analysed by SPE-MS. […]

Data set [2] concerns the target T1, NgTet1. The data set can be described thus: biochemical. The note with it: for normalised activity, %: AlphaScreen. The method, then: (Fig. 5a), were screened for inhibitory activity against NgTet1.
Activity was normalised against reactions containing vehicle (DMSO). […] AS data shown as the mean of three experimental replicates (n = 3; mean ± SD); ^1H NMR data plotted from two independent replicates (n = 2); tabulated data reported as the mean of two and three independent replicates for ^1H NMR and AS, respectively (n = 2–3, SD reported for n = 3). N. d.: not determined; AS: AlphaScreen.
Compounds in DMSO (100 nL) were pre-dispensed in a logarithmically linear concentration gradient onto 384-well ProxiPlates using an Echo® 550 acoustic liquid handler (Labcyte). NgTet1 was pre-incubated with the inhibitor dilution series in DMSO at room temperature for 10 min. Reactions were initiated by the addition of appropriate cofactors and DNA. […] The reactions were quenched by the addition of 30 mM EDTA (pH 4.2), 358 mM NaCl (5 μL) within the enzyme linear activity window (determined in Fig. S10). Concurrently, a mixture containing the anti-^5hmC antibody (1:2000 dilution) and AlphaScreen beads (1:62.5 dilution) in assay buffer was prepared and incubated at room temperature for 30 min. The AlphaScreen bead/antibody mixture was added to the quenched NgTet1 reactions (5 μL), and the complete mixture was incubated at room temperature for 1 h. Chemiluminescence was measured on a PHERAstar FS/FSX (BMG Labtech) equipped with an AlphaScreen 680 570 module. All AlphaScreen bead manipulations were performed under subdued lighting. Inhibition data was normalised to reactions containing vehicle only (1% v/v DMSO) and fitted using “log(inhibitor) vs. response—Variable slope (four parameters)” non-linear regression model on GraphPad Prism 5.
(In general: In Alpha technology, singlet oxygen from a donor bead excites a nearby acceptor bead.)

“5HC DNA: non-methylated DNA of the same sequence, 5'-ACC ACC GGT GGT-3', non-substrate (DNA ACCACCGGTGGT; DNA, backbone not given here)”: the “enzymatic oxidation by NgTet1” value with NgTet1 [1] is listed as “did not undergo enzymatic oxidation”.

In the case of `O=C(O)CNC(=O)C(=O)O` [NOG, N-oxalylglycine], the “normalised activity, %” value at NgTet1 [2] (-Log[inhibitor] (M) 3.30535) was 27.0589% and 23.4073% and 23.5938%; at NgTet1 [2] (-Log[inhibitor] (M) 3.82823), 54.6166% and 46.9965% and 50.3704%; at NgTet1 [2] (-Log[inhibitor] (M) 4.30535), 72.1146% and 66.2321% and 78.0488%; at NgTet1 [2] (-Log[inhibitor] (M) 4.90741), 90.0386% and 80.363% and 83.4878%; on NgTet1 [2] (-Log[inhibitor] (M) 5.39553), 101.245% and 102.244% and 89.2336%; on NgTet1 [2] (-Log[inhibitor] (M) 5.91841), 103.288% and 99.259% and 97.2201%. The “normalised activity, %” value at NgTet1 [2] (-Log[inhibitor] (M) 6.39553) was 114.516% and 95.8112% and 105.039%; at NgTet1 [2] (-Log[inhibitor] (M) 6.99759), 113.992% and 95.1834% and 95.7883%; on NgTet1 [2] (-Log[inhibitor] (M) 7.50947), 110.682% and 100% and 109.028%; at NgTet1 [2] (-Log[inhibitor] (M) 8.03235), 108.192% and 91.8591% and 90.7491%. Further, the half-inhibitory concentration (IC50) – broadly, the concentration that gives 50% inhibition – on NgTet1 [2] (read-out: IC50, 5mC ssDNA, AS) was found to be 200 µM.
